Results published in BindingDB's records for patent US20240101551 (Chia Tai Tianqing Pharmaceutical Group, 2024).

Target: T1, Bromodomain-containing protein 4 [75-147] (Homo sapiens, UniProt O60885)
T1 construct: 75-147
Assay: In Vitro Enzymatic Activity Assay
Method: In the present application, the IC50 value of the compound of formula (I) in inhibiting BRD4 (BD1) enzyme binding reaction were determined by homogeneous time resolved fluorescence (HTRF). The compound of formula (I) was serially diluted 5-fold with 100% DMSO starting from 0.2 mM (7 concentrations in total), and then 2 μL of the compound of formula (I) at each concentration was added to 48 μL of a reaction buffer (20 mM HEPES pH 7.5, 150 mM NaCl, 5 mM DTT, 0.005 % Tween 20, and 100 μg/mL BSA) for dilution, and mixed well. 2.5 μL of the resulting mixture was added to a 384-well plate (OptiPlate-384, purchased from PerkinElmer), then 5 μL of GST-BRD4 (BD1, 44-168 aa) (final concentration: 1 nM) was added, and the resulting mixture was centrifuged, and fully mixed. 2.5 μL of a short peptide Biotin-AHA-SGRGK(Ac)GGK(Ac)GLGK(Ac)GGAK(Ac) RHRKV (final concentration: 100 nM) was then added to initiate the reaction (total reaction volume: 10 μL). […] After being incubated in the incubator for another 1 hour, the fluorescence values (excited at 320 nm, emitted light at 665 nm and 620 nm being detected, and the ratio of the two being the enzyme binding signal) were read on Envision (purchased from PerkinElmer).

IC50: 0.64 nM
Compound: Cn1cc(-c2nc(CS(C)(=O)=O)ccc2Oc2ccc(F)cc2F)c2cc[nH]c2c1=O [US20240101551, Compound of Formula I]
